Patent publication US5861477A (priority 1996, dated 1999)
“Also recorded” adds a separate entry of the source. Read-outs that look alike come from different tables or passages of the source. Bridges are numbered along the chain shown (N, C = ends). Where no end group is shown, it is not given here.

What was measured:
[1] = test system: TrPepz; assay: TrPepz (synthetic cyclic peptide catalyst mimicking the active site of trypsin); conditions: up to 3 hrs
[2] = Chymotryptic activity: hydrolysis of BTEE; format: biochemical; conditions: in words
Procedure: Chymotryptic activity. The catalytic activity of αCT and CHPepz was determined by hydrolysis of BTEE in 0.08M Tris buffer, pH 7.8 containing 0.01M CaCl2 as described (Hummel, B. C. W. (1959) Can. J. Biochem. Physiol. 37, 1393-1399). Assays were done at 25° C. using 8.06×10^-4 μmoles of αCT or 7.49×10^-4 μmoles of ChPepz and different substrate concentrations (from 3 to 6 mM) in a total reaction volume of 1.0 ml. The change of absorbance at 256 nm was monitored on a recording spectrophotometer against a reference cuvette containing 1 ml of the same concentration of BTEE, but without αCT or ChPepz.
1.0 ml of substrate (BTEE) was mixed with solutions (10 μl aliquots) of ChPepz, or negative control peptides (containing 1-10 μg/10 μl) or αCT and activity was monitored by increase in absorbance at 256 nm at 37° C. (or at room temperature).
ChPepz solution was made in 10^-3 N HCl, since it will not digest itself in this solvent. Solutions of ChPepz were always made immediately before use. […] After mixing ChPepz with substrate (BTEE), there was typically a lag of 2-5 min (depending on pepzyme/substrate ratio) before any change in A256 was observed. However, in the early stages of the purification, the activity needed to be monitored over a period of several hours. It was important to ensure that negative controls (containing unrelated peptides in amounts similar to those of ChPepz in the test samples) were also monitored at the same time because the background absorbance will increase and the test samples had to be corrected for this background. As the sample's purity improves, maximum A256 was achieved more quickly. See, e.g., Atassi, M. Z. in Immunochemistry of Proteins, ed. […]
Tryptic activity. […] Kinetic constants for hydrolysis of BTEE and TAME were determined from the linear plots of 1/initial velocity (Vi in μmoles/min) versus 1/substrate concentration as described (Lineweaver, H. and Burk, D. (1934) J. Amer. Chem. Soc. 56, 658).
Inhibition of Enzymatic Activity. […] Activities were monitored spectrophotometrically as above and were compared to uninhibited controls. […]

[3] = Tryptic activity: hydrolysis of TAME; format: biochemical; conditions: for Km / kcat / kcat /Km: hydrolysis of TAME, pH 8.0 and 25° C.
Procedure: Tryptic activity. Measurement of tryptic activity was done in 0.046M Tris-HCl buffer, pH 8.0, containing 0.0115M CaCl2 as described (Hummel, B. C. W. (1959), id) using TAME as the substrate. For the assays, 8.4×10^-4 μmoles of […] or 1.6 c 10^-3 μmoles of TrPepz were allowed to hydrolyze different amounts of substrate at 25° C. in a total reaction volume of 1.0 ml. […] Kinetic constants for hydrolysis of BTEE and TAME were determined from the linear plots of 1/initial velocity (Vi in μmoles/min) versus 1/substrate concentration as described (Lineweaver, H. and Burk, D. (1934) J. Amer. Chem. Soc. 56, 658).
To TAME solutions (1 ml containing different amounts of substrate), an aliquot (10 μl) of TrPepz, or negative control peptide solutions (containing 1-10 μg/10 μl) was added, mixed immediately and the increase of absorbance at 247 nm was measured at 37° C. (or at room temperature).
TrPepz solutions were always made immediately before use. Although TrPepz has no potential tryptic cleavage points, it lost activity on standing in solution at 4° C. […] TrPepz will not act on chromogenic substrates--it was inhibited by p-nitro analine (and probably is inhibited by other aromatic amines). After mixing TrPepz with substrate, there was a lag of 2-5 minutes (depending on pepzyme/substrate ratio) before any change in A247 was observed. In the early stages of the purification, the activity was always monitored over a period of several hours. Negative controls (containing unrelated peptides in amounts similar to those of TrPepz in the test samples) were also monitored at the same time because the background absorbance will increase and the test samples had to be corrected for this background. As the sample's purity improved, maximum A247 was achieved more quickly.
Inhibition of Enzymatic Activity. The effects of inhibitors or disulfide bond reduction on enzymatic activities were done as described above except that the enzymes were pre-mixed (3 hrs, 25° C.) with 10 molar excess of inhibitor (or DTT) prior to addition to the substrate (140-150 molar excess relative to the catalyst). Activities were monitored spectrophotometrically as above and were compared to uninhibited controls.
In addition, test were performed which compared the activity of the two proteases under differing temperature parameters.

[4] = test system: myoglobin and casein; assay: Hydrolysis of proteins by enzymes or peptide enzyme catalysts (peptide maps); format: biochemical, sperm-whale (myoglobin), bovine (casein)
Procedure: Hydrolysis of Proteins by Enzymes or Peptide Enzyme Catalysts. Hydrolyses were done at 37° C. on aliquots (200 μl) containing 1 mg of myoglobin (5.6×10-2 μmoles) or casein (4.2×10^-2 μmoles) in 0.1M triethylamine-acetic acid buffer, pH 8.0 with 51 μg of αCT (2.06×10^-3 μmoles) and 2.9 μg of ChPepz (1.1×10^-3 μmoles) for 31/2 hrs or with 49 μg trypsin (2.06×10^-3 μmoles) and 5.0 μg TrPepz (1.87×10^-3 μmoles) for 8 hrs. The samples were then acidified (to pH 3.0) with 0.1M HCl freeze-dried and redissolved in 100 μl of H2 O at pH 3.0, and the entire sample was applied as a single spot to Whatman No. 3MM paper and subjected, in the first dimension, to ascending chromatography in n-butanol-acetic acid-water (4:1:5, vol/vol) followed by high voltage electrophoresis (3000 volts, 55 min), in the second dimension, in pyridine-acetic acid-water (1:10:289, vol/vol), pH 3.65, as described (Atassi, M. Z. and Saplin, B. J. (1968) Biochemistry 7, 688-698). The papers were then dried, steamed and stained with 0.2% ninhydrin in ethanol and the color was allowed to develop at room temperature. The papers were photographed 48 hrs after staining.

[5] = test system: model peptides (SEQ ID NO:7-10); assay: Action of TrPepz on model peptides; format: biochemical
[6] = Loss of pepzyme activity on storage in solution and on freezing and thawing; format: physicochemical
Procedure: ChPepz solution was made in 10^-3 N HCl, since it will not digest itself in this solvent. Solutions of ChPepz were always made immediately before use. […] After mixing ChPepz with substrate (BTEE), there was typically a lag of 2-5 min (depending on pepzyme/substrate ratio) before any change in A256 was observed. However, in the early stages of the purification, the activity needed to be monitored over a period of several hours. It was important to ensure that negative controls (containing unrelated peptides in amounts similar to those of ChPepz in the test samples) were also monitored at the same time because the background absorbance will increase and the test samples had to be corrected for this background. As the sample's purity improves, maximum A256 was achieved more quickly. See, e.g., Atassi, M. Z. in Immunochemistry of Proteins, ed. M. Z. Atassi, Vol. 2, pp. 77-176, Plenum, New York, N.Y. (1977); King, D. S., et al. Int. J. Pept. Prot. Res. 36: 255-266 (1990).
TrPepz solutions were always made immediately before use. […] In the early stages of the purification, the activity was always monitored over a period of several hours. Negative controls (containing unrelated peptides in amounts similar to those of TrPepz in the test samples) were also monitored at the same time because the background absorbance will increase and the test samples had to be corrected for this background. […]

[7] = TAME, pH 8.0 and 25° C., cited from earlier work

Question: With QLEPSTSSAVPLIGKG as the molecule, how does the cleaved bond [1] read?
Answer: The cleaved bond was “Lys-Gly”.

Question: Which “hydrolytic activity on BTEE” value [2] does the source give for “cyclo(-S-cystinyl-glycyl-tyrosyl-histidyl-phenylalanyl-glycyl-glycyl-seryl- aspartyl-glycyl-glutamyl-glycyl-seryl-aspartyl-glycyl-glycyl-valyl-seryl-tryptophanyl-glycyl-leucyl-glycyl-glycyl-aspartyl-glycyl-alanyl-alanyl-histidyl-cystinyl-S) (CGYHFGGSDGEGSDGGVSWGLGGDGAAHC; disulfide 1-29) [TrPepz]” here?
Answer: The value was “zero activity; also recorded: no effect; also recorded: not hydrolyzed; also recorded: not hydrolysed”.

Question: And the “activity on TAME after reduction of the disulfide bond (cyclic structure)” value ([3]; 10 molar excess of DTT)?
Answer: The value was “zero activity; also recorded: fully inactivated; also recorded: completely lost”.

Question: And the “activity on TAME in presence of TPCK” value ([3]; 10 molar excess of TPCK)?
Answer: Its value is “the two curves superimposed; also recorded: not by TPCK; also recorded: not affected”.

Question: And the “activity on TAME in presence of BPTI” value ([3]; 10 molar excess of inhibitor)?
Answer: The value was “zero activity; also recorded: completely inhibited; also recorded: inhibited entirely”.

Question: And the “activity on TAME in presence of DIFP” value ([3]; 10 molar excess of inhibitor)?
Answer: Its value is “zero activity; also recorded: fully inactivated; also recorded: inhibited entirely; also recorded: completely inhibited”.

Question: What about the “activity on TAME in presence of PMSF” value ([3]; 10 molar excess of inhibitor) of the same molecule?
Answer: The value was “zero activity; also recorded: fully inactivated; also recorded: inhibited entirely; also recorded: completely inhibited”.

Question: And the “activity on TAME in presence of human α1 -antitrypsin” value ([3]; 10 molar excess of inhibitor)?
Answer: Its value is “zero activity; also recorded: completely inhibited; also recorded: inhibited entirely”.

Question: What about the “activity on TAME in presence of soybean trypsin inhibitor” value ([3]; 10 molar excess of inhibitor) of the same molecule?
Answer: Its value is “completely inhibited; also recorded: inhibited entirely”.

Question: What about the “% Activity of Native Enzyme at 35° C.” value ([3]; Temp. 10) of the same molecule?
Answer: Its value is 7.4%.

Question: And the “% Activity of Native Enzyme at 35° C.” value ([3]; Temp. 35)?
Answer: Its value is “approx. 40%”.

Question: What about the “% Activity of Native Enzyme at 35° C.” value ([3]; Temp. 48) of the same molecule?
Answer: The value was “approx. 50%”.

Question: What about the “lag before any change in A247” value ([3]; after mixing with substrate, depends on pepzyme/substrate ratio) of the same molecule?
Answer: Its value is 2 to 5 min.

Question: What about the Km [3] of the same molecule?
Answer: The Km was 2420 ± 90 µM.

Question: And the kcat [3]?
Answer: The kcat was 85 ± 2.6 sec.^-1.

Question: What about the “kcat /Km” value [3] of the same molecule?
Answer: Its value is 35000 M⁻¹ s⁻¹.

Question: And the “rate of TAME hydrolysis relative to the rate obtained with the enzyme itself” value ([3]; relative to trypsin)?
Answer: Its value is “about 40%”.

Question: And the “inhibition by p-nitro analine” value ([3]; will not act on chromogenic substrates)?
Answer: The value was “inhibited”.

Question: What about the “hydrolysis of myoglobin and casein, peptides compared with those of the respective enzyme” value ([4]; 37° C., pH 8.0, 3 1/2 hrs (ChPepz) or 8 hrs (TrPepz)) of the same molecule?
Answer: Its value is “essentially the same as the pattern of the respective protein obtained by tryptic hydrolysis”.

Question: And the “proteolytic activity in presence of DIFP” value ([4]; protein substrates)?
Answer: The value was “completely inhibited”.

Question: And the “proteolytic activity in presence of PMSF” value ([4]; protein substrates)?
Answer: Its value is “completely inhibited”.

Question: What about the “proteolytic activity in presence of TPCK” value ([4]; protein substrates) of the same molecule?
Answer: The value was “no effect”.

Question: And the “efficiency at hydrolyzing Lys-Lys, Lys-Lys-Lys, Arg-Lys and Lys-Arg bonds compared with trypsin” value ([4]; yields of lysine and arginine in hydrolysates)?
Answer: Its value is “more efficient than trypsin”.

Question: And the “hydrolysis of the Lys-Gly bond of peptide SEQ ID NO:7” value ([5]; 3 hrs, molar ratio of substrate/TrPepz, 1:60)?
Answer: The value was “over 95%”.

Question: And the “cleavage of lysozyme sequences SEQ ID NO:8, 9, 10 at the C-bond of lysine and arginine” value ([5]; no other products)?
Answer: The value was “completely cleaved”.

Question: What about the “freezing and thawing cycles to complete loss of activity” value [6] of the same molecule?
Answer: Its value is 5 cycles.

Question: And the “time to complete loss of activity on storage in solution” value ([6]; 4° C.)?
Answer: Its value is “two”.

Question: Which cleaved bond [1] does the source give for DNYRGYSLG here?
Answer: The cleaved bond was “Arg-Gly”.

B1: Trypsin: native bovine trypsin (TPCK-trypsin, Worthington), positive control (protein, UniProt P00760 24-246, looked up)
Serine protease 1: IVGGYTCGANTVPYQVSLNSGYHFCGGSLINSQWVVSAAHCYKSGIQVRLGEDNINVVEGNEQFISASKSIVHPSYNSNTLNNDIMLIKLKSAASLNSRVASISLPTSCASAGTQCLISGWGNTKSSGTSYPDVLKCLKAPILSDSSCKSAYPGQITSNMFCAGYLEGGKDSCQGDSGGPVVCSGKLQGIVSWGSGCAQKNKPGVYTKVCNYVSWIKQTIASN
modifications: TPCK-treated
notes: native bovine trypsin (TPCK-trypsin, Worthington), positive control
Question: What does the source list for B1?
Answer: hydrolytic activity on BTEE [2]: zero activity; also recorded: does not hydrolyze; hydrolytic activity on BTEE ([2]; listed as trypsin): not hydrolysed; % Activity of Native Enzyme at 35° C. ([3]; Temp. 10): 4.5%; % Activity of Native Enzyme at 35° C. ([3]; Temp. 35): 100%; % Activity of Native Enzyme at 35° C. ([3]; Temp. 48): 67%; Km [3]: 2560 ± 160 µM; kcat [3]: 221 ± 9.7 sec.^-1; kcat /Km [3]: 86000 M⁻¹ s⁻¹; kcat ([3]; listed as trypsin): 221 sec.^-1; hydrolytic activity on TAME ([3]; in words): hydrolyzes; Km ([7]; Lorand et al. 1961, read-out: Km reported value): 2760 µM; kcat reported value ([7]; Martin et al. 1959): 187 s⁻¹
